Reference: patent US20230406843A1, “Progranulin Modulators and Methods of Using the Same” (ARKUDA THERAPEUTICS, priority 2020, published 2023)
pEC50: −log10 of the molar value. Structures can show the parent of a compound that is named as a salt.

The molecules below were run on progranulin (assay: Progranulin induction cellular assay (ELISA of secreted mouse PGRN)). Conditions: Mus musculus, BV-2, read-out: EC50 μM.
Assay type: cell-based
In short: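 Secreted mouse PGRN in culture medium is measured by ELISA. Cells tested are BV-2, primary cortical neurons and primary microglia. BV-2 cells are plated a day ahead, allowed 1 h to attach, then incubated 16 h.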

Row | Compound | EC50 [µM]
1 | C#CCO[C@H]1CO[C@@H](C(=O)N2CCc3ccccc3[C@@H]2c2ccc(F)cc2)C[C@@H]1N [Compound 5541, ((2R,4S,5R)-4-amino-5-(prop-2-yn-1-yloxy)tetrahydro-2H-pyran-2-yl)((S)-1-(4-fluorophenyl)-3,4-dihydroisoquinolin-2(1H)-yl)methanone] | 0.001

Same assay, conditions: progranulin induction assay; mouse pMG, primary cortical neurons and BV-2 cell lines named, cell type not given; ELISA-based readout; read-out: EC50

Row | pEC50 | Compound
2 | 7.80 | CS(=O)(=O)[C@H]1CO[C@@H](C(=O)N2CCc3ccccc3[C@@H]2c2ccc(F)cc2)C[C@@H]1N [Compound 5523, ((2R,4S,5R)-4-amino-5-(methylsulfonyl)tetrahydro-2H-pyran-2-yl)((S)-1-(4-fluorophenyl)-3,4-dihydroisoquinolin-2(1H)-yl)methanone]
3 | 7.80 | CCS(=O)(=O)[C@H]1CO[C@@H](C(=O)N2CCc3ccccc3[C@@H]2c2ccc(F)cc2)C[C@@H]1N [Compound 5524, ((2R,4S,5R)-4-amino-5-(ethylsulfonyl)tetrahydro-2H-pyran-2-yl)((S)-1-(4-fluorophenyl)-3,4-dihydroisoquinolin-2(1H)-yl)methanone]
4 | 8.22 | CC[C@H]1CO[C@@H](C(=O)N2CCc3ccccc3[C@@H]2c2ccc(F)cc2)C[C@@H]1N [Compound 5526, ((2R,4S,5R)-4-amino-5-ethyltetrahydro-2H-pyran-2-yl)((S)-1-(4-fluorophenyl)-3,4-dihydroisoquinolin-2(1H)-yl)methanone]
5 | 6.56 | N[C@H]1C[C@H](C(=O)N2CCc3ccccc3[C@@H]2c2ccc(F)cc2)OC[C@@H]1Oc1ccccc1 [Compound 5527, ((2R,4S,5R)-4-amino-5-phenoxytetrahydro-2H-pyran-2-yl)((S)-1-(4-fluorophenyl)-3,4-dihydroisoquinolin-2(1H)-yl)methanone]
6 | 6.77 | CN1C=N[C@H]2C[C@H](C(=O)N3CCc4ccccc4[C@@H]3c3ccc(F)cc3)OC[C@H]21 [Compound 5528, ((S)-1-(4-fluorophenyl)-3,4-dihydroisoquinolin-2(1H)-yl)((3aS,6R,7aS)-3-methyl-3,3a,4,6,7,7a-hexahydropyrano[3,4-d]imidazol-6-yl)methanone hydrochloride]
7 | 5.81 | Cn1cnc2c1CO[C@@H](C(=O)N1CCc3ccccc3[C@@H]1c1ccc(F)cc1)C2 [Compound 5529, ((S)-1-(4-fluorophenyl)-3,4-dihydroisoquinolin-2(1H)-yl)((R)-3-methyl-3,4,6,7-tetrahydropyrano[3,4-d]imidazol-6-yl)methanone]
8 | 9.52 | N[C@H]1C[C@H](C(=O)N2CCc3ccccc3[C@@H]2c2ccc(F)cc2)OC[C@@H]1OC1CC1 [Compound 5530, ((2R,4S,5R)-4-amino-5-cyclopropoxytetrahydro-2H-pyran-2-yl)((S)-1-(4-fluorophenyl)-3,4-dihydroisoquinolin-2(1H)-yl)methanone]
9 | 7.06 | N[C@H]1C[C@H](C(=O)N2CCc3ccccc3[C@@H]2c2ccc(F)cc2)OC[C@@H]1OCc1ccccc1 [Compound 5531, ((2R,4S,5R)-4-amino-5-(benzyloxy)tetrahydro-2H-pyran-2-yl)((S)-1-(4-fluorophenyl)-3,4-dihydroisoquinolin-2(1H)-yl)methanone]
10 | 5.77 | O=C1CN[C@H]2C[C@H](C(=O)N3CCc4ccccc4[C@@H]3c3ccc(F)cc3)OC[C@@H]2N1 [Compound 5532, (4aR,7R,8aS)-7-((S)-1-(4-fluorophenyl)-1,2,3,4-tetrahydroisoquinoline-2-carbonyl)hexahydro-2H-pyrano[3,4-b]pyrazin-3(4H)-one]
11 | 6.54 | CN1C(=O)CN[C@H]2C[C@H](C(=O)N3CCc4ccccc4[C@@H]3c3ccc(F)cc3)OC[C@@H]21 [Compound 5533, (4aR,7R,8aS)-7-((S)-1-(4-fluorophenyl)-1,2,3,4-tetrahydroisoquinoline-2-carbonyl)-4-methylhexahydro-2H-pyrano[3,4-b]pyrazin-3(4H)-one]
12 | 6.82 | CCN1C(=O)CN[C@H]2C[C@H](C(=O)N3CCc4ccccc4[C@@H]3c3ccc(F)cc3)OC[C@@H]21 [Compound 5536, (4aR,7R,8aS)-4-ethyl-7-((S)-1-(4-fluorophenyl)-1,2,3,4-tetrahydroisoquinoline-2-carbonyl)hexahydro-2H-pyrano[3,4-b]pyrazin-3(4H)-one]
13 | 7.54 | N[C@H]1C[C@H](C(=O)N2CCc3ccccc3[C@@H]2c2ccc(F)cc2)OC[C@@H]1CO [Compound 5537, ((2R,4S,5S)-4-amino-5-(hydroxymethyl)tetrahydro-2H-pyran-2-yl)((S)-1-(4-fluorophenyl)-3,4-dihydroisoquinolin-2(1H)-yl)methanone]
14 | 7.19 | N[C@H]1C[C@H](C(=O)N2CCc3ccccc3[C@@H]2c2ccc(F)cc2)OC[C@H]1CO [Compound 5538, ((2R,4S,5R)-4-amino-5-(hydroxymethyl)tetrahydro-2H-pyran-2-yl)((S)-1-(4-fluorophenyl)-3,4-dihydroisoquinolin-2(1H)-yl)methanone]
15 | 9.00 | N[C@H]1C[C@H](C(=O)N2CCc3ccccc3[C@@H]2c2ccc(F)cc2)OC[C@@H]1NCC(F)(F)F [Compound 5539, ((2R,4S,5R)-4-amino-5-((2,2,2-trifluoroethyl)amino)tetrahydro-2H-pyran-2-yl)((S)-1-(4-fluorophenyl)-3,4-dihydroisoquinolin-2(1H)-yl)methanone]
16 | 5.36 | O=C([C@H]1C[C@@H]2NCCS(=O)(=O)[C@H]2CO1)N1CCc2ccccc2[C@@H]1c1ccc(F)cc1 [Compound 5542, ((4aR,7R,8aS)-4,4-dioxidooctahydropyrano[3,4-b][1,4]thiazin-7-yl)((S)-1-(4-fluorophenyl)-3,4-dihydroisoquinolin-2(1H)-yl)methanone]
17 | 7.52 | C#CCO[C@H]1COC(C(=O)N2CCc3ccccc3[C@@H]2c2ccc(F)cc2)C[C@@H]1NCCCOC (stereo partly drawn) [Compound 5546]
18 | 5.99 | [NH-][S@@+2]1([O-])CCN[C@H]2C[C@H](C(=O)N3CCc4ccccc4[C@@H]3c3ccc(F)cc3)OC[C@@H]21 [Compound 5553, ((S)-1-(4-fluorophenyl)-3,4-dihydroisoquinolin-2(1H)-yl)((4R,4aR,7R,8aS)-4-imino-4-oxidooctahydro-2H-^4-pyrano[3,4-b][1,4]thiazin-7-yl)methanone]

Row | pEC50 | Compound
19 | 8.40 | CC[C@@H]1CN[C@H]2C[C@H](C(=O)N3CCc4ccccc4[C@@H]3c3ccc(F)cc3)OC[C@@H]2O1 [Compound 5564, ((3R,4aR,7R,8aS)-3-ethyloctahydropyrano[3,4-b][1,4]oxazin-7-yl)((S)-1-(4-fluorophenyl)-3,4-dihydroisoquinolin-2(1H)-yl)methanone]
20 | < 6.52 | CCC[C@@H]1CN[C@H]2C[C@H](C(=O)N3CCc4ccccc4[C@@H]3c3ccc(F)cc3)OC[C@@H]2O1 [Compound 5565]
21 | < 6.52 | COC[C@@H]1CN[C@H]2C[C@H](C(=O)N3CCc4ccccc4[C@@H]3c3ccc(F)cc3)OC[C@@H]2O1 [Compound 5566]
22 | 7.15 | CC(C)[C@@H]1CN[C@H]2C[C@H](C(=O)N3CCc4ccccc4[C@@H]3c3ccc(F)cc3)OC[C@@H]2O1 [Compound 5567]
23 | 7.60 | CO[C@H]1CO[C@@H](C(=O)N2CCc3ccccc3[C@@H]2c2ccc(F)cc2)C[C@@H]1NCCO [Compound 5568]
24 | < 6.52 | COCCN[C@H]1C[C@H](C(=O)N2CCc3ccccc3[C@@H]2c2ccc(F)cc2)OC[C@@H]1OC [Compound 5569, ((S)-1-(4-fluorophenyl)-3,4-dihydroisoquinolin-2(1H)-yl)((2R,4S,5R)-5-methoxy-4-((2-methoxyethyl)amino)tetrahydro-2H-pyran-2-yl)methanone]
25 | 6.63 | CO[C@H]1CO[C@@H](C(=O)N2CCc3ccccc3[C@@H]2c2ccc(F)cc2)C[C@@H]1NCCC(F)(F)F [Compound 5570]
26 | 7.55 | CO[C@H]1CO[C@@H](C(=O)N2CCc3ccccc3[C@@H]2c2ccc(F)cc2)C[C@@H]1N(C)C [Compound 5575, ((2R,4S,5R)-4-(dimethylamino)-5-methoxytetrahydro-2H-pyran-2-yl)((S)-1-(4-fluorophenyl)-3,4-dihydroisoquinolin-2(1H)-yl)methanone]
27 | < 6.52 | CO[C@H]1CO[C@@H](C(=O)N2CCc3ccccc3[C@@H]2c2ccc(F)cc2)C[C@@H]1NCC(F)(F)F [Compound 5577]
28 | 7.52 | C=CCN[C@H]1C[C@H](C(=O)N2CCc3ccccc3[C@@H]2c2ccc(F)cc2)OC[C@@H]1OC [Compound 5578]
29 | 7.30 | CCCN[C@H]1C[C@H](C(=O)N2CCc3ccccc3[C@@H]2c2ccc(F)cc2)OC[C@@H]1OC [Compound 5579]
30 | 6.66 | CN[C@H]1C[C@H](C(=O)N2CCc3ccccc3[C@@H]2c2ccc(F)cc2)OC[C@@H]1O [Compound 5586]
31 | 6.71 | CCN[C@H]1C[C@H](C(=O)N2CCc3ccccc3[C@@H]2c2ccc(F)cc2)OC[C@@H]1O [Compound 5587]
32 | 9.00 | CCN1CCN[C@H]2C[C@H](C(=O)N3CCc4ccccc4[C@@H]3c3ccc(F)cc3)OC[C@@H]21 [Compound 5599]
33 | 7.68 | CCCN1CCN[C@H]2C[C@H](C(=O)N3CCc4ccccc4[C@@H]3c3ccc(F)cc3)OC[C@@H]21 [Compound 5600]
34 | 7.74 | COCCN1CCN[C@H]2C[C@H](C(=O)N3CCc4ccccc4[C@@H]3c3ccc(F)cc3)OC[C@@H]21 [Compound 5601]
35 | 8.10 | CC(C)(C)N1CCN[C@H]2C[C@H](C(=O)N3CCc4ccccc4[C@@H]3c3ccc(F)cc3)OC[C@@H]21 [Compound 5603]

Row | Compound | pEC50
36 | N[C@H]1C[C@H](C(=O)N2CCc3ccccc3[C@@H]2c2ccc(F)cc2)OC[C@@H]1OC1CCC1 [Compound 5525, ((2R,4S,5R)-4-amino-5-cyclobutoxytetrahydro-2H-pyran-2-yl)((S)-1-(4-fluorophenyl)-3,4-dihydroisoquinolin-2(1H)-yl)methanone] | 9.52
